Legend:
[1] = system: HIV-GFP infected primary CD4 T cells; experiment: Primary CD4 T cell latency model (HIV-GFP reporter, flow cytometry of GFP- cells); format: cell-based, human; conditions: for effect on the formation of latently infected (GFP-) cells: cultured in the presence of inhibitor from 2 dpi for up to 4 weeks, FIG. 1B
From the text: Viruses and cell culture: Stocks of HIV-GFP were generated by co-transfection of 293T cells with the pNL4-3-Δ6-dreGFP plasmid (generous gift of Robert Siliciano) and the packaging plasmids PAX2-GagPol) and MD2-VSVG, using Mirus LT1 reagent. At 2 days post transfection virus was harvested from the supernatant and clarified by low speed centrifugation, followed by filtration through a […] filter.
Primary cell latency model: Primary CD4 T cells were isolated from fresh whole blood (purchased from Gulf Coast Regional Blood Center) by Ficoll isolation of peripheral blood mononuclear cells (PBMCs), then magnetic negative selection of CD4 T cells using a CD4 enrichment kit (Stem Cell). Total primary CD4 T cells were activated using anti-CD3/CD28 beads (Thermo Fisher) at a ratio of one bead per cell for 2 days, then infected with HIV-GFP viral supernatant by spinocculation for 2 hrs at 600 g with 4 µg/mL polybrene. The infected cells were then resuspended in fresh RPMI with IL-2 (Peprotech) at 100 U/mL and incubated for two days before actively infected (GFP^+) cells were sorted using a FACSAria flow sorter (Becton Dickson). The purified infected cells (GFP^+) were then maintained at 1-2 million/mL with fresh media and IL-2 added every 2-3 days for 2 weeks. […] Other small molecule inhibitors were purchased from commercial vendors.
HIV latency is regulated by covalent modifications to provirus-associated histones that can promote or repress transcription. These modifications are mediated by a set of host cell enzyme complexes, including histone acetyl transferases (HATs), histone deacetylases (HDACs), histone methyltransferases (HMTs) and histone demethylases (HDMs). To investigate the role of these complexes in the establishment of HIV latency a primary CD4 T cell model of latency was examined. In this model, activated CD4 T cells are infected with a GFP expressing reporter strain of HIV. At 2 dpi, actively infected cells (GFP^+) are sorted to obtain a pure actively infected population, then cultured for 3-4 weeks (FIG. 1A). […] To examine the role of specific histone modifying enzymes in this system, actively infected (GFP^+) cells were isolated at 2 dpi and the cells cultured in the presence of a panel of inhibitors targeting chromatin modifying complexes. […] The infected cells were cultured in the presence of each inhibitor for up to 4 weeks. Each week post infection, the emergence of the latently infected (GFP^−) population was measured by flow cytometry (FIG. 1B).

[2] = system: HIV-dreGFP/Thy1.2 infected primary CD4 T cells; experiment: HDAC selective inhibitor experiments in HIV-dreGFP/Thy1.2 infected CD4 T cells (viral gene expression by flow cytometry); format: cell-based, human; conditions: cultured 14 d in the presence of inhibitor; FIG. 7B
From the text: FIGS. 7A-7D show Class I HDAC selective inhibitors reveal druggable dependency on HDAC1 and 2 in latency initiation. A. Schematic overview of HDAC selective inhibitor experiments. […] B. Dose response curve showing the proportion of cells with productive viral gene expression after two weeks of treatment with the indicated inhibitors. Data shown are from one representative cell donor conducted in technical triplicate. C. Time course flow cytometry experiment in HIV-GFP/Thy1.2 infected primary CD4 T cells cultured with the indicated inhibitors. […] D. Mean fluorescent intensity (MFI) of GFP signal in Thy1.2+ cells in data from C. Data shown are representative of three independent experiments.
However, the contribution and roles of individual HDACs are largely unknown. Because of the high homology of HDAC1 and HDAC2 in the enzyme activation site, selective inhibitors for HDAC1 or HDAC2 have not been developed. Thus, the impact of novel small molecules that inhibit both HDAC1 and HDAC2 (HDAC1/2i) or HDAC3 (HDAC3i) on HIV silencing in CD4 T cells was examined. Activated CD4 T cells were infected with HIV-dreGFP/Thy1.2 and cultured for 14 d in the presence of each inhibitor, and viral gene expression was measured by flow cytometry (FIG. 7A).

[3] = previous clinical studies, vorinostat dosing; cited from earlier work
[4] = system: HIV-eGFP infected CD4 T cells; experiment: Surface marker phenotype of HIV infected CD4 T cells by flow cytometry; format: cell-based, human; conditions: vorinostat exposure post stimulation, vs DMSO, FIG. 4
Experimental: HIV gene expression is regulated by a set of host cell transcription factors that vary in activity as CD4 T cells adopt different activation states and sub-lineage identities post activation. […] To investigate this possibility, flow cytometry was performed to examine the surface marker phenotype of HIV infected cells.

COc1cc2nc(N3CCCN(C)CC3)nc(NC3CCN(Cc4ccccc4)CC3)c2cc1OC [BIX1294]
effect on the formation of latently infected (GFP-) cells [1]: modest reduction in the percentage of latently infected cells

Nc1cc(F)ccc1NC(=O)/C=C/c1cnn(C/C=C/c2ccccc2)c1 [RGFP966]
latency prevention (prevention of HIV silencing), dose response [2]: much lower extent

Nc1ncnc2c1ncn2[C@@H]1O[C@H](C[C@@H](N)CC[C@H](N)C(=O)O)[C@@H](O)[C@H]1O [Singefungin, sinefungin]
effect on the formation of latently infected (GFP-) cells [1]: no significant effect

CCCc1cc(C)[nH]c(=O)c1CNC(=O)c1cc(-c2ccc(N3CCN(C(C)C)CC3)nc2)cc2c1cnn2C(C)C [UNC1999]
effect on the formation of latently infected (GFP-) cells [1]: modest reduction in the percentage of latently infected cells

CC(C)N(C[C@H]1O[C@@H](n2cnc3c(N)ncnc32)[C@H](O)[C@@H]1O)[C@H]1C[C@@H](CCc2nc3cc(C(C)(C)C)ccc3[nH]2)C1 [pinometostat]
effect on the formation of latently infected (GFP-) cells [1]: no significant effect

O=C(CCCCCCC(=O)Nc1ccccc1)NO [vorinostat]
time of declining concentrations [3]: 6 to 24 h
time of peak concentrations [3]: 2 to 6 h
fraction of cells with central memory phenotype (CD45RA- CCR7+) ([4]; 2-3 weeks post infection): increased fraction
expression of CD4 T cell activation marker PD-1 [4]: did not lead to increased expression
GFP status of treated cells after removal of vorinostat ([1]; 2 weeks vorinostat, then 2 weeks culture without vorinostat, FIG. 2A): remained mostly GFP^−
percentage of latent (GFP-) cells ([1]; 3 weeks post infection, in the presence of vorinostat, DMSO 70%): 10%
reduction of latent (GFP-) population vs vehicle (DMSO) ([1]; 3 weeks post infection, from 70% (DMSO) to 10%): 7 fold
impact on HIV latency, vorinostat in media 0-14 days post infection ([1]; add in / wash out, latently infected cells measured at 3 wpi, FIG. 2B): significant impact
impact on frequency of latently infected cells, addition or removal between 14 dpi and 21 dpi ([1]; add in / wash out, measured at 3 wpi, FIG. 2B): little impact
emergence of latently infected cells, continuous exposure ([1]; continuous vorinostat 500 nM, 3 weeks post infection, FIG. 1C): potently prevented the emergence of latently infected cells
effect on the formation of latently infected (GFP-) cells [1]: potently inhibited the emergence of a latent (GFP^−) population
establishment of latency, pulsatile exposure ([1]; daily 6 h pulse of vorinostat 500 nM followed by 18 h wash-out, 3 weeks, FIG. 1C): significantly block the establishment of latency in a subset of cells
suppression of HIV latency over a range of concentrations ([1]; exposure for two weeks to different vorinostat concentrations, FIG. 2A): clear dose-dependent fashion

From patent publication US20240173276A1, “METHODS AND COMPOSITIONS FOR INHIBITING FORMATION OF THE HIV LATENT RESERVOIR” (The University of North Carolina at Chapel Hill, priority 2021, published 2024)
